Assay results reported in patent publication US20250059267A1, “COMBINATION THERAPY FOR TREATMENT OF TUMORS COMPRISING CANCER-ASSOCIATED FIBROBLASTS” (PHENOMIC AI, priority 2021, published 2025).

Legend:
Type in all cases: cell-based, human
[1] = system: BJ or CCD18-Co fibroblasts; assay: TGF-β pathway inhibitors in TGF-β stimulated fibroblast monocultures (αSMA/CD248 immunofluorescence, MIL model); details: 48 hours
Description: (§1) FIG. 2 TGF-β inhibitors perform poorly in co-culture compared to mono-culture. (A) Normal BJ fibroblasts were cultured in either minimal media or alongside HT-29 CRC cancer cells. 6-different TGF-β inhibitors were added alongside TGF-β [1 ng/ml]ligand. […] (B) This is most apparent comparing the effects of three TGF-β inhibitors with varying selectivity.
We then tested the relative potency of a panel of TGF-β pathway inhibitors in monoculture fibroblasts stimulated with TGF-β compared to co-culture with CRC cells that produce their own, similar levels of TGF-β.
(§2) In brief, monocultures of BJ or CCD18-Co fibroblasts were stimulated with TGF-β for 48 hours in the presence of serial dilutions of each TGF-β inhibitor and fibroblast activation was assessed by immunofluorescence using αSMA and CD248. The probability of fibroblast activation was assessed by a machine learning model, Multiple Instance Learning (MIL) trained on unstimulated fibroblasts (no drug, no TGF-β) as a negative control, and TGF-β stimulated fibroblasts (with vehicle control) as positive control. […] This observation was confirmed by CellProfiler analysis where individual fibroblasts were segmented and αSMA and stress-fiber intensity was quantified (FIG. 2A).

[2] = system: fibroblasts grown in the presence of either HCT 116 cells or HT-29 cells; assay: TGF-β pathway inhibitors in fibroblast-cancer cell co-cultures (CAF activation); details: for block of CAF activation in coculture (FIG. 2B): BJ fibroblasts with HT-29 cells, TGF-β 1 ng/ml; for activity on CAF phenotypes in co-culture: identical doses to those used in the previous test
Description: as §1
as §2, with “control. For co-culture comparisons, the same fibroblasts were grown in the presence of either HCT 116 cells or HT-29 cells and treated with the same serial dilutions of small molecule TGF-β. For these co-cultures, the addition of exogenous TGF-β is not required as the cancer cells secrete sufficient TGF-β for maximal fibroblast activation.” for “control.”
We took an mAb inhibitor of TGFBR2, LY3022859, and assessed the performance of this inhibitor in co-culture alongside SIS3 and […], (FIG. 2 B). […] In contrast, both LY364947 and SIS3 were active at identical doses to those used in the previous test. Again, exogenous TGF-β was dispensable for this effect.

[3] = system: fibroblasts (BJ, CCD18-Co); assay: Activin A, Activin B and TGF-β dose response for CAF induction in unstimulated fibroblasts; details: for IC50 values, 1 hr vs. 48 hr timepoints: BJ or CCD18-Co fibroblast mono-cultures in minimal media (N=2); for phenotypic changes in fibroblasts (SMAD2/3, phospho-CREB, ASMA, Endosialin): BJ-fibroblasts; for EC50 values (fibroblast induction into a CAF like state, composite machine learning score): depending on condition tested, BJ, CCD18-Co, 1 hr and 48 hr; for ASMA score (intensity and number of ASMA filaments) vs. TGF-β treatment: highest dose, 48 hours
Description: FIG. 3 Activin and TGF-β both induce a CAF phenotype in fibroblast cell-lines. […] B) Quantification of ASMA levels and plate coverage further reinforce these changes downstream of addition of both Activin and TGF-β. C) TGF-β and Activin A were added over a range of doses to BJ or CCD18-Co colon fibroblasts grown as mono-cultures in minimal media (N=2). Cells were stained for Actin, Endosialin/CD248, DAPI/Nuclei, and αSMA. Machine Learning (Multiple Instance Learning) models were trained on the highest and lowest doses to generate dose-response curves.
To test whether Activin signaling could induce CAF activation similarly to TGF-β we added serial dilutions (3-fold) of recombinant Activin A ([…] max concentration) and Activin B ([…] max concentration) to unstimulated fibroblasts (BJ, CCD18-Co) to generate dose response curves for Activin A and B. A serial 3-fold dilution of TGF-β was also tested as a positive control ([…] max concentration). A number of high-content markers of CAF activation we used as endpoints. Namely, cells were probed for SMAD2/3 translocation to the nucleus and phospoCREB levels at 1 hr, as a marker of direct ACVR/TGFBR stimulation. ASMA and Endosialin levels were then probed at 48 hrs to quantify CAF induction levels following Activin and TGF-β stimulation. At the highest dose, at 1 hr we saw SMAD 2/3 nuclear translocation alongside phospho-CREB up-regulation, indicating receptor engagement and activity in both Activin and TGF-β treated conditions (FIG. 3A).

[4] = system: CCD-18Co normal colon fibroblasts; assay: Cytokine stimulation of fibroblast monocultures, CAF marker immunofluorescence; details: fibroblast monoculture serum-starved 24 hours, stimulated 48 hours, vs untreated fibroblasts
Description: A panel of 5 CAF markers were then used to stain the cultures and the expression levels of expression of the markers calculated from individual segmented fibroblasts.
First, we treated normal human fibroblasts with a panel of cytokines to induce activation, and then assessed CAF marker expression by immunofluorescence. Fibroblast monocultures were serum-starved for 24 hours then stimulated with TGF-β, TNF alpha, PDGFbb, acidic FGF or other cytokines for 48 hours. Cells were then fixed, permeabilized and stained with a panel of immunofluorescent CAF markers and imaged by high-content microscopy.

| Molecule | block of CAF activation in coculture (FIG. 2B) [2] | activity on CAF phenotypes in co-culture [2] | IC50 values, 1 hr vs. 48 hr timepoints [3] | phenotypic changes in fibroblasts (SMAD2/3, phospho-CREB, ASMA, Endosialin) [3] | EC50 values (fibroblast induction into a CAF like state, composite machine learning score) [3] | ASMA score (intensity and number of ASMA filaments) vs. TGF-β treatment [3] | also measured |
| --- | --- | --- | --- | --- | --- | --- | --- |
| Cc1cccc(-c2nn3c(c2-c2ccnc4ccc(C(N)=O)cc24)CCC3)n1 [LY2157299] |  |  |  |  |  |  | effectiveness in monoculture (inhibition of αSMA) [1]: effective; inhibition of αSMA in co-culture ([2]; even up to 100 μM): very little inhibition |
| c1ccc(-c2[nH]ncc2-c2ccnc3ccccc23)nc1 [LY364947] | blocks CAF activation at high doses | active |  |  |  |  |  |
| Activin A: recombinant Activin A |  |  | lower at the 48 hr timepoint in CCD18 colon fibroblasts | induce similar phenotypic changes | 10 to 30 µg/mL | no difference |  |
| TGF-β: TGF-β ligand added as cytokine stimulus and positive control |  |  | lower for 1 hr timepoints vs. 48 hr timepoints | induce similar phenotypic changes |  |  | expression of alpha-smooth muscle actin (αSMA), podoplanin (PDPN) and CD248 [4]: increased expression |
| Activin B: recombinant Activin B |  |  |  | induce similar phenotypic changes | 4 to 9 µg/mL | no difference |  |
| COc1cc2c(cc1OC)CN(C(=O)/C=C/c1c(-c3ccccc3)n(C)c3ncccc13)CC2 [SIS3] | able to block CAF activation | active |  |  |  |  | response in co-culture among the inhibitors tested (rightward shift of IC50) [2]: best response; reduction of αSMA levels in coculture ([2]; % of the control, conditions with >5% cell death excluded): more than 50% |
